Data on two compounds can be found in PMC9127186, “Molecular Basis Underlying Hepatobiliary and Renal Excretion of Phenolic Acids of Salvia miltiorrhiza Roots (Danshen)” (Frontiers in Pharmacology, 2022).

Holding throughout (conditions): 10 min, 100 μM
One series has as its target T1, human NTCP (Homo sapiens, UniProt Q14973).
T1 sequence (Q14973 1-349): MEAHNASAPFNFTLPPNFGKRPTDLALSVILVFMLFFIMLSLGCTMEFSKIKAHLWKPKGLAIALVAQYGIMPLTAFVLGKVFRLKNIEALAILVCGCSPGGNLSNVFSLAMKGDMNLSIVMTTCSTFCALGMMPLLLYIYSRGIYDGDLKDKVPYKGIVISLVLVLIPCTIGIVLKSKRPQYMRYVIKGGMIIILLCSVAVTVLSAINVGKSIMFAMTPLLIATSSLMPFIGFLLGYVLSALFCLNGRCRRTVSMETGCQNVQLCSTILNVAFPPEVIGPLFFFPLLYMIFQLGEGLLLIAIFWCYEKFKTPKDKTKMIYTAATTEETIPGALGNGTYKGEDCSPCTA

Another series deals with T2, rat Oatp1a1 (Rattus norvegicus, UniProt P46720).
T2 sequence (P46720 1-670): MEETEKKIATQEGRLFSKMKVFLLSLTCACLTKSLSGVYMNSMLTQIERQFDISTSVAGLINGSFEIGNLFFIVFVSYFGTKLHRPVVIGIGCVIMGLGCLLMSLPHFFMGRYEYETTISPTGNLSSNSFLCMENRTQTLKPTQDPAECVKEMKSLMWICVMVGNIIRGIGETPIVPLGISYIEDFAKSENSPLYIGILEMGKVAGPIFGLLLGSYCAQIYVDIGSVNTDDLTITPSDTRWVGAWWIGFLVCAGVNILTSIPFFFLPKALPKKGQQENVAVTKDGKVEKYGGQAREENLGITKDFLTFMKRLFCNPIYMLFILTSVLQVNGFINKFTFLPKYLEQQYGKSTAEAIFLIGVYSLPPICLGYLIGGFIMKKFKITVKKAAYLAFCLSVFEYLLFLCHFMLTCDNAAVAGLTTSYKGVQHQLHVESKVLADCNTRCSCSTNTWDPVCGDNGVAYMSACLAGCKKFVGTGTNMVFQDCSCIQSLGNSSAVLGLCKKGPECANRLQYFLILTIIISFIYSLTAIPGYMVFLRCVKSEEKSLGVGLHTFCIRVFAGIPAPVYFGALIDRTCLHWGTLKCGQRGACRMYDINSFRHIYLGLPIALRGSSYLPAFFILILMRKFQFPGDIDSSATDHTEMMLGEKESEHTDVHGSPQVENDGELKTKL

For another series, the target named is T3, rat Oct1 (Rattus norvegicus, UniProt Q63089).
T3 sequence (Q63089 1-556): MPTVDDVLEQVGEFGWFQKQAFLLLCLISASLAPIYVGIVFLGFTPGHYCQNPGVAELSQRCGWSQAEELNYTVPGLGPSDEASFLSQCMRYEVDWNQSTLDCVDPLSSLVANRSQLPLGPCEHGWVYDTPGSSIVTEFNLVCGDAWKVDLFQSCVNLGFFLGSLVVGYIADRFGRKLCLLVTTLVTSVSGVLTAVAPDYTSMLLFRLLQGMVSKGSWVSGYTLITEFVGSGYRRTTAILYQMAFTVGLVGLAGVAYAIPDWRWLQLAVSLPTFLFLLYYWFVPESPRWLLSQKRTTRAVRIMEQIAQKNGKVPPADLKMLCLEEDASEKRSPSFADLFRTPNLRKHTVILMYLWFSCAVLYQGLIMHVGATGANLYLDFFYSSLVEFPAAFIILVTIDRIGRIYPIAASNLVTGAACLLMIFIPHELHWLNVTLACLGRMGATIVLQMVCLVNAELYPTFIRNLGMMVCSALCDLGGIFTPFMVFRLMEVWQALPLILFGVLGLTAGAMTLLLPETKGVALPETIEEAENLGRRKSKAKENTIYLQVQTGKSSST

The target in a further series is T4, rat Octn2 (Rattus norvegicus, UniProt O70594).
T4 sequence (O70594 1-557): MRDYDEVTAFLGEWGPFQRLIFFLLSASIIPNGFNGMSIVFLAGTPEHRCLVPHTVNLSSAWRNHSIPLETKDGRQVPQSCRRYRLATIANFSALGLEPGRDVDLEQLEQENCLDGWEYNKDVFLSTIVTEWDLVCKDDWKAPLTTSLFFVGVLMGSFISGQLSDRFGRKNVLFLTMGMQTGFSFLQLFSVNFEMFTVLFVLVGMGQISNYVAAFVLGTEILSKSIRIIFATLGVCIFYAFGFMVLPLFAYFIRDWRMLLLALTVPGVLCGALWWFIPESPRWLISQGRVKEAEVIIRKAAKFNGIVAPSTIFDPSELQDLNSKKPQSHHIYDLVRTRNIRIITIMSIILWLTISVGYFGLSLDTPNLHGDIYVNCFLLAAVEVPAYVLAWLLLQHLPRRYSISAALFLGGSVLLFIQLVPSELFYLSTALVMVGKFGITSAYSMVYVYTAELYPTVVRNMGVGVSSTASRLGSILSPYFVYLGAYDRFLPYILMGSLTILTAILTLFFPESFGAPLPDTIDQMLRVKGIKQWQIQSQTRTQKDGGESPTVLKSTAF

In a further series the target is T5, rat Ntcp (Rattus norvegicus, UniProt P26435).
T5 sequence (P26435 1-362): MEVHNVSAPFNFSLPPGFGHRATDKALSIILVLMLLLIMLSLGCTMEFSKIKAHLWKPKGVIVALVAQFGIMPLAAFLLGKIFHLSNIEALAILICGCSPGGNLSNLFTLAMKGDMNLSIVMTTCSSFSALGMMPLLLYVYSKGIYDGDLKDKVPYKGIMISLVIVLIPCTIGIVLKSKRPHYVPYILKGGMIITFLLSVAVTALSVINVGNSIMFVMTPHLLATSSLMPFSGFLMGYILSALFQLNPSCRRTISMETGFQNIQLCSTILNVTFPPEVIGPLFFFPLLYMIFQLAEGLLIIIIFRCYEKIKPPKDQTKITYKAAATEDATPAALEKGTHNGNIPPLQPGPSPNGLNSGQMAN

Take `O=C(/C=C/c1ccc(O)c(O)c1)O[C@H](Cc1ccc(O)c(O)c1)C(=O)O` [Rosmarinic acid, rosmarinic acid]: the “TransportTC/TransportMC ratio (net transport ratio)” value is reported as 2.76 ± 0.36 at human NTCP; 1.45 ± 0.57 at rat Oatp1a1; 1.56 ± 0.13 on rat Oct1; 1.14 ± 0.04 at rat Octn2; 1.68 ± 0.25 at rat Ntcp.

Consider `O=C(/C=C/c1ccc(O)c(O)c1/C=C/c1ccc(O)c(O)c1)O[C@H](Cc1ccc(O)c(O)c1)C(=O)O` [Salvianolic acid A, salvianolic acid A], for which the “TransportTC/TransportMC ratio (net transport ratio)” value at human NTCP is on record as 0.93 ± 0.11; at rat Oatp1a1, 2.24 ± 0.67; on rat Oct1, 1.13 ± 0.19; at rat Octn2 it was 0.95 ± 0.44; on rat Ntcp it was 0.84 ± 0.13.
